# Source: the supplement of paper PMC10307832
# What was measured:
# Assay in all cases: relative viability (nuclei count vs DMSO), 5 days (fraction); higher = more cells survive
# [1] = compound: Cc1ccc2nc(NCCN)c3ncc(C)n3c2c1 + CC(=O)c1c(C)c2cnc(Nc3ccc(N4CCNCC4)cn3)nc2n(C2CCCC2)c1=O [Palbociclib] (partner 0.5 µM)
# Procedure, shortened: (§1)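 Dosing by pin tool came one day after lung cancer cell lines were seeded in 1536-well plates, using either one drug or a fixed anchor-drug dose plus five library-drug doses (not always all listed) in √10 steps. After 5 days, nuclei were counted on 4× images. Relative viability is treated-well nuclei count divided by vehicle-well nuclei count, and values are medians of duplicate plates.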
# [2] = compound: Cc1ccc2nc(NCCN)c3ncc(C)n3c2c1 + C[C@@H](Oc1cc(-c2cnn(C3CCNCC3)c2)cnc1N)c1c(Cl)ccc(F)c1Cl [Crizotinib] (partner 1 µM)
# Procedure, shortened: as §1
# Salubrinal + Bortezomib = compound: O=C(/C=C/c1ccccc1)NC(NC(=S)Nc1cccc2cccnc12)C(Cl)(Cl)Cl [Salubrinal] + CC(C)C[C@H](NC(=O)[C@H](Cc1ccccc1)NC(=O)c1cnccn1)B(O)O [Bortezomib] (partner 0.002 µM)
# Procedure, shortened: as §1
# Salubrinal + Vorinostat = compound: O=C(/C=C/c1ccccc1)NC(NC(=S)Nc1cccc2cccnc12)C(Cl)(Cl)Cl [Salubrinal] + O=C(CCCCCCC(=O)Nc1ccccc1)NO [Vorinostat] (partner 1 µM)
# Procedure, shortened: as §1
Cell Line,relative viability ([1]; first compound 0.04 µM),relative viability ([1]; first compound 0.1265 µM),relative viability ([1]; first compound 0.4 µM),relative viability ([1]; first compound 1.265 µM),relative viability ([1]; first compound 4 µM),relative viability ([2]; first compound 0.04 µM),relative viability ([2]; first compound 0.1265 µM),relative viability ([2]; first compound 0.4 µM),relative viability ([2]; first compound 1.265 µM),relative viability ([2]; first compound 4 µM),relative viability (Salubrinal + Bortezomib; first compound 0.08 µM),relative viability (Salubrinal + Bortezomib; first compound 0.253 µM),relative viability (Salubrinal + Bortezomib; first compound 0.8 µM),relative viability (Salubrinal + Bortezomib; first compound 2.53 µM),relative viability (Salubrinal + Bortezomib; first compound 8 µM),relative viability (Salubrinal + Vorinostat; first compound 0.08 µM),relative viability (Salubrinal + Vorinostat; first compound 0.253 µM),relative viability (Salubrinal + Vorinostat; first compound 0.8 µM),relative viability (Salubrinal + Vorinostat; first compound 2.53 µM),relative viability (Salubrinal + Vorinostat; first compound 8 µM)
HCC-78,0.499,0.475,0.484,0.437,0.369,0.37,0.327,0.328,0.332,0.334,0.516,0.579,0.521,0.537,0.427,0.473,0.446,0.472,0.451,0.441
HCC-366,0.409,0.392,0.343,0.382,0.352,0.642,0.553,0.582,0.508,0.502,1.21,0.608,1.22,1.08,1.05,0.494,–,0.443,0.364,0.345
HCC-827,0.437,0.517,0.473,0.501,0.495,0.792,0.903,0.932,0.866,0.927,0.98,0.955,1.23,1.05,1.07,0.838,0.917,0.965,0.788,0.785
HOP-62,0.424,0.436,0.475,0.469,0.464,1.01,0.895,0.811,0.812,0.835,0.392,0.576,0.601,0.874,1.04,0.657,0.498,0.627,0.563,0.616
IA-LM,–,–,–,–,–,1.05,0.945,0.631,0.787,0.631,1.01,0.874,0.895,0.68,0.758,0.974,0.645,0.882,0.816,1.03
LC-2-ad,0.469,0.524,0.482,0.51,0.452,0.467,0.448,0.44,0.406,0.476,0.992,0.92,1.16,1,1.02,0.735,0.644,0.692,0.651,0.665
LCLC-97TM1,0.236,0.217,0.247,0.218,0.245,0.379,0.394,0.255,0.287,0.293,0.995,–,1.22,0.626,0.637,0.751,0.739,1.04,0.939,0.656
LK-2,0.502,0.811,–,–,0.725,0.228,0.258,0.214,0.222,0.238,–,–,–,–,–,0.257,0.279,0.356,0.395,0.325
NCI-H358,0.122,0.121,0.123,0.145,0.131,0.613,0.594,0.691,0.583,0.487,–,–,–,–,–,0.804,0.659,0.757,0.641,0.661
